Assay results reported in US20090075948A1, “COMPOSITIONS AND METHODS FOR REGULATING CELLULAR PROTECTION” (California Institute of Technology, priority 2007, published 2009).

Assays:
Assay type in all cases: cell-based, Drosophila
HSF = HSF DNA binding activity, gel mobility shift assay (EMSA) with whole cell extracts and labeled HSE; conditions: for optimal concentration for induction of HSF DNA binding: treated 60 minutes, no heat shock; for stimulation of HSF DNA binding: without cellular stress
Protocol: FIG. 14. Induction of HSF DNA binding and hsp70 protein synthesis by ibuprofen and salicylic acid. The concentrations of ibuprofen and salicylic acid are shown as mM. Both DNA binding and Hsp70 protein synthesis follow the same optimal concentrations. The cells were treated for 60 minutes with the indicated drug and whole cell extracts prepared for analysis.
The effect of the KDs on DNA binding was first examined using the gel mobility shift assay. Briefly cells were treated with RNAi or transfected with the indicated DNA constructs and harvested four days later. Whole cell extracts were prepared and DNA binding carried out with a labeled heat shock element (HSE) double stranded oligonucleotide. Lanes 1 and 2 represent control cells, non-shocked and heat shocked, respectively. […] Lanes 3 and 4 contain extract derived from the Hsc3p KD cells.

Hsp70 [1] = experiment: Induction of Hsp70 protein synthesis in cultured cells; conditions: for optimal concentration for induction of Hsp70 protein synthesis: treated 60 minutes, no heat shock; for stimulation of Hsp70 protein synthesis: without cellular stress
Protocol: FIG. 14. Induction of HSF DNA binding and hsp70 protein synthesis by ibuprofen and salicylic acid. The concentrations of ibuprofen and salicylic acid are shown as mM. Both DNA binding and Hsp70 protein synthesis follow the same optimal concentrations. The cells were treated for 60 minutes with the indicated drug and whole cell extracts prepared for analysis. […] The goal here is to activate HSF to produce adequate levels of Hsp70 that can provide neuroprotective functions to the human brain. To begin these studies, two common non-steroidal anti-inflammatory drugs (NSAIDs), ibuprofen and salicylic acid, were tested. These molecules have been previously shown to stimulate HSF DNA binding in mammalian and Drosophila cells. The findings presented here differ from those previously published. As reported here, both salicylic acid and ibuprofen can stimulate HSF DNA binding, Hsp70 transcription and Hsp70 protein synthesis. […] It is clear that both DNA binding and Hsp70 protein synthesis have identical optimums.

Hsp70 [2] = experiment: Hsp70 transcription, primer-extension analysis of isolated RNA; conditions: for stimulation of Hsp70 transcription: without cellular stress
Protocol: FIG. 15. Time course for Hsp70 transcription induction by 3 mM salicylic acid. Cells were treated with 3 mM salicylic acid and RNA was isolated at the indicated times.
Control cells (lanes 1 and 2) show activation of Hsp70 transcription as a result of a ten-minute heat shock. […] Lanes 3 and 4 contain RNA from KD cells with RNAi against Hsc4p. […] When Hsc4p levels are reduced, HSF is able to bind DNA and activate transcription without heat shock.

[3] = Drosophila cultured cells, 60 minutes

## O=C(O)c1ccccc1O [salicylic acid]
HSF; [3]
  low concentration that still functions for HSF DNA binding: 1 mM
HSF; Drosophila cultured cells
  optimal concentration for induction of HSF DNA binding: quite broad
HSF
  stimulation of HSF DNA binding: can stimulate
Hsp70 [1]; [3]
  low concentration that still functions for Hsp70 protein synthesis: 1 mM
Hsp70 [1]; Drosophila cultured cells
  optimal concentration for induction of Hsp70 protein synthesis: quite broad
Hsp70 [1]
  stimulation of Hsp70 protein synthesis: can stimulate
Hsp70 [2]; 3 mM salicylic acid
  time course of Hsp70 transcription induction: induced rapidly
Hsp70 [2]
  stimulation of Hsp70 transcription: can stimulate

## CC(C)Cc1ccc(C(C)C(=O)O)cc1 (stereo not shown) [ibuprofen]
HSF; Drosophila cultured cells
  optimal concentration for induction of HSF DNA binding: 3 to 10 mM
HSF
  stimulation of HSF DNA binding: can stimulate
Hsp70 [1]; Drosophila cultured cells
  optimal concentration for induction of Hsp70 protein synthesis: 3 to 10 mM
Hsp70 [1]
  stimulation of Hsp70 protein synthesis: can stimulate
Hsp70 [2]
  stimulation of Hsp70 transcription: can stimulate
